Measured values reported in ChEMBL document CHEMBL5104106, “Designed hybrid anticancer nuclear-localized peptide inhibits aggressive cancer cell proliferation” (RSC Med Chem, 2022).
Activity calls are given as the source filed them. The rule behind the calls is not given here. Where a SMILES comes first, the peptide text is derived from it. The star is where a group is joined. X1 = O=C(c1ccccc1-c1c2ccc(=O)cc-2oc2cc(O)ccc12)*

Key:
K562 [1] = assay: Induction of apoptosis in human K562 cells assessed as […] incubated for 24 hrs by AnnexinV-FITC/propidium iodide staining based flow cytometric analysis (reference value: 31 +/- 0.4 %); assay type: functional
K562 [2] = assay: Induction of apoptosis in human K562 cells assessed as cell death at 10 to 20 uM incubated for 24 hrs by AnnexinV-FITC/propidium iodide staining based flow cytometric analysis; assay type: functional; settings: dose 10-20 µM
[3] = Drug uptake in human K562 cells at 5 uM incubated for 1 hrs by flow cytometry analysis; assay type: ADME, cell-based; settings: k562, 1 h
K562 [4] = assay: Induction of apoptosis in human K562 cells assessed as early apoptotic cells at 1.5625 to 25 uM incubated for 24 hrs by AnnexinV-FITC/propidium iodide staining based flow cytometric analysis; assay type: functional, cell-based; settings: dose 1.5625-25 µM
K562 [5] = assay: Induction of apoptosis in human K562 cells incubated for 24 hrs by AnnexinV-FITC/propidium iodide staining based flow cytometric analysis; assay type: functional, cell-based; settings: K562, 24 h
K562 [6] = assay: Induction of apoptosis in human K562 cells assessed as late apoptotic cells at 1.5625 to 25 uM incubated for 24 hrs by AnnexinV-FITC/propidium iodide staining based flow cytometric analysis; assay type: functional, cell-based; settings: dose 1.5625-25 µM
U-937 = assay: Induction of apoptosis in human U-937 cells incubated for 24 hrs by AnnexinV-FITC/propidium iodide staining based flow cytometric analysis; assay type: functional, cell-based; settings: U-937, 24 h
[7] = Drug uptake in human K562 cells at 5 uM incubated for 4 hrs by Hoechst 33258 staining based fluorescence microscopic analysis; assay type: ADME, cell-based; settings: k562, 4 h
[8] = Drug uptake in human U-937 cells at 5 uM incubated for 4 hrs by flow cytometric analysis; assay type: ADME, cell-based; settings: u-937, 4 h

Row | Compound | Drug uptake [3] | IC50 (K562 [5]) [µM] | IC50 (U-937) [µM] | Activity (K562 [1]) [%] | further results
1 | CC[C@H](C)[C@H](NC(=O)[C@@H]1CCCN1C(=O)[C@@H](NC(=O)[C@@H](C)N)C(C)C)C(=O)N[C@@H](Cc1ccccc1)C(=O)N[C@@H](CCCCN)C(=O)N[C@@H](Cc1ccccc1)C(=O)N[C@@H](CC(C)C)C(=O)N[C@@H](CC(=O)O)C(=O)N[C@H](C(=O)N[C@@H](CC(C)C)C(=O)N[C@H](C(=O)N[C@H](C(=O)N[C@@H](CC(C)C)C(=O)N[C@@H](Cc1cnc[nH]1)C(=O)N[C@@H](CCCNC(=N)N)C(=O)N[C@H](C(=O)N[C@@H](CCC(N)=O)C(=O)N[C@@H](CCCNC(=N)N)C(=O)N[C@@H](CCCCN)C(=O)N[C@@H](CCCNC(=N)N)C(=O)N[C@@H](CCC(N)=O)C(=O)N[C@@H](CCCCN)C(=O)N[C@@H](CC(C)C)C(=O)N[C@@H](CCSC)C(=O)N1CCC[C@H]1C(=O)O)C(C)C)C(C)C)C(C)C)[C@@H](C)O | – | – | – | 44 | Activity (K562 [2]): Active
2 | CC(C)C[C@H](NC(=O)[C@H](Cc1ccccc1)NC(=O)c1ccccc1-c1c2ccc(=O)cc-2oc2cc(O)ccc12)C(=O)N[C@@H](CC(=O)O)C(=O)N[C@H](C(=O)N[C@@H](CC(C)C)C(=O)N[C@H](C(=O)N[C@H](C(=O)N[C@@H](CC(C)C)C(=O)N[C@@H](Cc1cnc[nH]1)C(=O)N[C@@H](CCCNC(=N)N)C(=O)O)C(C)C)C(C)C)[C@@H](C)O (X1-FLDTLVVLHR-OH) | Active | – | – | – | –
3 | H-FLDTLVVLHRVQRKRQKLMP-OH | – | 5.58 | 1390 | 36 | Activity (K562 [4]): Active; Activity (K562 [6]): Active

More lines, main results first:

Row | Drug uptake [3] | IC50 (K562 [5]) [µM] | IC50 (U-937) [µM] | Compound | Activity (K562 [1]) [%] | further results
4 | Active | – | – | CSCC[C@H](NC(=O)[C@H](CC(C)C)NC(=O)[C@H](CCCCN)NC(=O)[C@H](CCC(N)=O)NC(=O)[C@H](CCCNC(=N)N)NC(=O)[C@H](CCCCN)NC(=O)[C@H](CCCNC(=N)N)NC(=O)[C@H](CCC(N)=O)NC(=O)[C@@H](NC(=O)[C@H](CCCNC(=N)N)NC(=O)[C@H](Cc1cnc[nH]1)NC(=O)[C@H](CC(C)C)NC(=O)[C@@H](NC(=O)[C@@H](NC(=O)[C@H](CC(C)C)NC(=O)[C@@H](NC(=O)[C@H](CC(=O)O)NC(=O)[C@H](CC(C)C)NC(=O)[C@H](Cc1ccccc1)NC(=O)c1ccccc1-c1c2ccc(=O)cc-2oc2cc(O)ccc12)[C@@H](C)O)C(C)C)C(C)C)C(C)C)C(=O)N1CCC[C@H]1C(=O)O (X1-FLDTLVVLHRVQRKRQKLMP-OH) | – | Drug uptake [7]: Active; Drug uptake [8]: Active
5 | – | 30.1 | 374 | H-FLDTLVVLHR-OH | – | –
